{"source": "patent US8642516B2", "about": "“Chemically-defined arrays for screening cell-substrate interactions” (Wisconsin Alumni Research Foundation, priority 2012, dated 2014)", "key": {"[1]": {"tested_on": "HUVEC", "assay": "HUVEC attachment to SAM spots presenting mutant ligand (Example 8)", "assay_type": "cell-based, human", "procedure": "Specifically, SAM array spots presenting mixed ligands were prepared as described above. SAM arrays presenting varied ligand densities of covalently immobilized VEGF receptor-binding peptide ([…], here referred to as “VR-BP”; SEQ ID NO:17) and varied ligand densities of the fibronectin-derived cell adhesion peptide (GRGDSP, SEQ ID NO:18) were used to probe for changes in HUVEC attachment, proliferation and tubulogenesis. Control over individual ligand density was achieved by mixing scrambled VR-BP and mutant GRGESP (SEQ ID NO:19) with functional VR-BP or GRGDSP (SEQ ID NO:18) peptides, respectively. Therefore, in a typical SAM array, SAMs were locally formed within spots using an alkanethiolate mixture of 94% HS—C11-EG3-OH and 6% HS—C11-EG6-COOH to create substrates with a total of 6% carboxylate groups for peptide conjugation. Next, to create a spot presenting 5% GRGDSP (SEQ ID NO:18) and 1% VR-BP, a 300 μM peptide solution with 250 μM GRGDSP (SEQ ID NO:18) and 50 μM VR-BP was used during peptide conjugation. […] As mentioned previously, ligand concentrations were measured using UV/Vis since all peptides either contained residues that absorbed strongly at 280 nm, or were engineered to contain tryptophan residues in the poly-glycine tail. […]"}, "[2]": {"tested_on": "hMSC", "assay": "hMSC surface coverage over time on SAM spots presenting GRGDSP with BR-BP and HPG-BP", "assay_type": "cell-based, human", "conditions": "low GRGDSP density SAM spots, cultured 20 days", "source_text": "In this SAM array approach, each spot was designed to contain the same total molar density (mol/cm^2) of peptide from spot to spot. Therefore, control over individual peptide density was achieved by mixing scrambled BR-BP and HPG-BP and mutant GRGESP (SEQ ID NO:19) peptides with functional BR-BP, HPG-BP or GRGDSP (SEQ ID NO:18) peptides, respectively. Therefore, in a typical SAM array, SAMs were locally formed within spots using an alkanethiolate mixture of 95% HS—C11-EG3-OH and 5% HS—C11-EG6-COOH to create substrates with a total of 5% carboxylate groups for peptide conjugation. Here, “X %” refers to the mole percent of alkanethiolate present during SAM formation and subsequently the approximate amount of an alkanethiolate present on the surface after SAM formation. To regulate the density of active peptide present in each spot, mutant and scramble versions of peptides were included during peptide conjugation. […] As mentioned previously, peptide concentrations were easily measured using UV/Vis since all peptides either contained residues that absorbed strongly at 280 nm, or were engineered to contain tryptophan residues in the poly-glycine tail. […]"}, "[3]": {"tested_on": "HUVEC", "assay": "HUVEC proliferation (Click-it EdU) in response to soluble morphogens on SAM arrays", "assay_type": "cell-based, human", "conditions": "soluble, 10 ng/ml, 24 hours, m199 with 2% FBS, highest ligand density spots", "quoted_text": "Specifically, SAM array spots presenting mixed ligands were prepared as described above. SAM arrays presenting varied ligand densities of covalently immobilized VEGF receptor-binding peptide ([sequence], here referred to as “VR-BP”; SEQ ID NO:17) and varied ligand densities of the fibronectin-derived cell adhesion peptide (GRGDSP, SEQ ID NO:18) were used to probe for changes in HUVEC attachment, proliferation and tubulogenesis. Control over individual ligand density was achieved by mixing scrambled VR-BP and mutant GRGESP (SEQ ID NO:19) with functional VR-BP or GRGDSP (SEQ ID NO:18) peptides, respectively. Therefore, in a typical SAM array, SAMs were locally formed within spots using an alkanethiolate mixture of 94% HS—C11-EG3-OH and 6% HS—C11-EG6-COOH to create substrates with a total of 6% carboxylate groups for peptide conjugation. Next, to create a spot presenting 5% GRGDSP (SEQ ID NO:18) and 1% VR-BP, a 300 μM peptide solution with 250 μM GRGDSP (SEQ ID NO:18) and 50 μM VR-BP was used during peptide conjugation. Likewise, to create a spot presenting 2.5% GRGDSP (SEQ ID NO:18) and 0.1% VR-BP, a 300 μM peptide solution with 125 μM GRGDSP (SEQ ID NO:18), 125 μM GRGESP (SEQ ID NO:19), 5 μM VR-BP and 45 μM scrambled peptide was used during peptide conjugation. In this manner, the amount of active ligand could be varied between spots while holding the total ligand content constant.\nPassage 2 HUVECs were expanded at low cell density (less than 70% confluence) on tissue culture polystyrene to no more than 14 population doublings. During HUVEC expansion, cells were cultured in medium 199 (m199, Mediatech, Manassas, Va.) containing 1% penicillin/streptomycin (Hyclone, Logan, Utah) and supplemented with Clonetics EGM-2 BullitKit (Lonza Walkersville, Inc., Walkersville, Md.) containing Hydrocortisone, hFGF-B, VEGF, R3-IGF-1, Ascorbic Acid, Heparin, FBS, hEGF, GA-1000 growth supplements. […]"}, "[4]": {"tested_on": "HUVEC", "assay": "HUVEC attachment to SAM spots presenting immobilized VR-BP", "assay_type": "cell-based, human", "conditions": "immobilized 1% VR-BP vs scrambled peptide, highest GRGDSP densities, 1 hour", "procedure": "(§1) Passage 2 HUVECs were expanded at low cell density (less than 70% confluence) on tissue culture polystyrene to no more than 14 population doublings. During HUVEC expansion, cells were cultured in medium 199 (m199, Mediatech, Manassas, Va.) containing 1% penicillin/streptomycin (Hyclone, Logan, Utah) and supplemented with Clonetics EGM-2 BullitKit (Lonza Walkersville, Inc., Walkersville, Md.) containing Hydrocortisone, hFGF-B, VEGF, R3-IGF-1, Ascorbic Acid, Heparin, FBS, hEGF, GA-1000 growth supplements. NIH 3T3 cells were expanded in Dulbecco's modified eagles medium (DMEM, Mediatech, Manassas, Va.) containing 1% penicillin/streptomycin and supplemented with 5% cosmic calf serum (Hyclone, Logan, Utah). Before seeding on SAM arrays, HUVECs in cell culture flasks were starved for 24 hours in medium containing 2% FBS and then removed from the plate using a 0.05% trypsin solution and resuspended in m199 with 2% FBS. Cell suspension was seeded onto SAM arrays in sterile polystyrene Petri dishes and incubated in a humid environment at 37° C. and 5% CO2. After allowing cells to attach for ˜1 hr, arrays were dipped in warm m199 with 2% FBS to remove loosely attached cells and then transferred to a rectangular multidish (Thermo Scientific/Nunc, Rochester, N.Y.) containing warm media with 2% FBS and imaged ˜2 hours later serving as “0 hr”. […]"}, "[5]": {"tested_on": "NIH 3T3 fibroblasts", "assay": "NIH 3T3 attachment to SAM spots presenting immobilized VR-BP", "assay_type": "cell-based", "conditions": "immobilized 1% VR-BP vs scrambled peptide, 1 hour", "procedure": "as §1"}, "[6]": {"tested_on": "HUVEC", "assay": "HUVEC survival and proliferation on SAM arrays presenting immobilized VR-BP with VEGF / SU5416", "assay_type": "cell-based, human", "procedure": "as §1"}, "[7]": {"tested_on": "HUVEC", "assay": "Endothelial tubulogenesis on SAM spots with matrigel overlay", "assay_type": "cell-based, human", "procedure": "Specifically, SAM arrays seeded overnight with 50,000 HUVECs/cm^2 were rinsed with warm media and then flipped over onto cold matrigel (Growth factor reduced matrigel, BD Biosciences, Bedford, Mass.) in a rectangular multidish well containing varied concentrations of soluble recombinant VEGF. Matrigel was allowed to gel for 5 minutes, and then the array and matrigel layer were covered with warm m199 with 2% FBS. Arrays were then placed in a TIZ Tokai Hit incubated, humidified stage at 37° C. and 5% CO2 and each array spot was imaged using phase contrast microscopy every 15 minutes for 48 hours. Image analysis was performed using NIS Elements software. The total cell area and length of individual objects were measured in each array spot at 24 hours after seeding. To measure mean length of capillary-like structures, each image was contrasted and thresholded using a standard method to isolate elongated objects for automated length measurements. All objects with a length less than 20 μm were excluded from length measurements. To measure total area occupied by cells, the images were contrasted and thresholded to isolate all cell bodies from the background for automated area measurements. Objects with a length less than 10 μm were excluded from area measurements. Tubulogenesis in each spot was quantified by normalizing the mean length of objects to total cell area in each array spot. SAM array spots were imaged using a Nikon Eclipse Ti inverted microscope with a 10×PhL objective, equipped with Nikon's Perfect Focus System. 10× images were stitched using Nikon NIS Elements software to capture entire array spots and cell counting was performed using the cell counting application in NIS Elements. Statistical analysis of all data sets was performed using a two-tailed student's t-test, where p<0.05 is used to denote statistical significance."}}, "data": [{"substance": "GRGESP [mutant peptide mixed with GRGDSP to control ligand density]", "values": [{"measurement": "HUVEC attachment", "setting": "[1]", "value": "did not promote HUVEC attachment"}]}, {"substance": "KIPKASSVPTEL [BR-BP]", "values": [{"measurement": "hMSC surface coverage", "setting": "[2]", "value": "maintained hMSC surface coverage"}]}, {"substance": "KLTWQELYQLKYKGI [VR-BP]", "values": [{"measurement": "HUVEC proliferation (EdU incorporation) compared to cells without stimulation", "setting": "[3]", "value": "significant increases in proliferation"}, {"measurement": "HUVEC attachment", "setting": "[4]", "value": "significantly decreased"}, {"measurement": "NIH 3T3 attachment", "setting": "[5]", "value": "no effect"}, {"measurement": "HUVEC proliferation", "setting": "[6]; immobilized 1% VR-BP, in presence of soluble VEGF, high and low ligand densities", "value": "inhibited proliferation"}, {"measurement": "HUVEC survival", "setting": "[6]; immobilized VR-BP at 1% density, without soluble VEGF or in presence of SU5416", "value": "decreased HUVEC survival"}, {"measurement": "tubulogenesis (average tubule length per total cell area)", "setting": "[7]; 1% VR-BP vs 0% VR-BP, presence and absence of soluble VEGF", "value": "increased tubulogenesis"}, {"measurement": "tubulogenesis", "setting": "[7]; 1% VR-BP vs lower VR-BP surfaces, absence of soluble VEGF", "value": "significantly increased"}]}, {"substance": "VEGF", "values": [{"measurement": "HUVEC proliferation (EdU incorporation) compared to cells without stimulation", "setting": "[3]", "value": "increased HUVEC proliferation"}, {"measurement": "tubulogenesis (average tubule length per total cell area)", "setting": "[7]; soluble VEGF protein", "value": "decreased tubulogenesis"}]}]}
